Measured values as given in patent publication US8501715B2, “Oxidized lipids and uses thereof in the treatment of inflammatory diseases and disorders” (Vascular Biogenics Ltd., priority 2003, dated 2013).

Legend:
[1] = tested on: IL-10; test: RT-PCR cytokine expression in the aorta: IL-10; assay type: in vivo, mouse; settings: oral 1 mg/mouse 5 times every other day, 8 weeks after final administration
Description: (§1) The effect of ALLE, CI-201, its corresponding acetal derivatives Et-acetal and Me-acetal (Compounds IIa and IIb, FIG. 10) and oxLDL on cytokine expression in the target organ—the aorta—was evaluated using RT-PCR as described hereinabove. […] Oral administrations took place 5 times every other day.

[2] = tested on: IL-12; test: RT-PCR cytokine expression in the aorta: IL-12; assay type: in vivo; settings: oral 1 mg/mouse 5 times every other day, 8 weeks after final administration
Description: as §1

[3] = tested on: Apo-E KO mice; test: Assessment of atherosclerosis: lesion area in the aortic sinus; assay type: in vivo, mouse
[4] = tested on: IFN-γ; test: RT-PCR cytokine expression in the aorta: IFN-γ; assay type: in vivo; settings: oral 1 mg/mouse 5 times every other day, 8 weeks after final administration
Description: as §1

[5] = tested on: Apo-E KO mice; test: Aorta lesion (% from total area); assay type: in vivo; settings: oral 1 mg/mouse, 5 feedings every other day every 4 weeks over 12 weeks; 24.5 week old mice; End
Text: Assessment of Atherosclerosis: Quantification of atherosclerotic fatty streak lesions was done by calculating the lesion size in the aortic sinus as previously described (Paigen et al. Quantitative assessment of atherosclerotic lesions in mice. Atherosclerosis 1987; 68: […]) and by calculating the lesion size in the aorta. Briefly, after perfusion with saline Tris EDTA, the heart and the aorta were removed from the animals and the peripheral fat cleaned carefully. The upper section of the heart was embedded in OCT medium (10.24% w/w polyvinyl alcohol; 4.26% w/w polyethylene glycol; 85.50 w/w nonreactive ingredients) and frozen. […] Sections were evaluated for fatty streak lesions after staining with oil-red O. Lesion areas per section were scored on a grid (Rubin et al. Inhibition of early atherogenesis in transgenic mice by human apoplipoprotein A-I. Nature 1991; 353: 265-267) by an observer counting unidentified, numbered specimens. […]
Their effect on the triglyceride and cholesterol fractions of VLDL was also monitored by FPLC. […]
(§2) Mice were bled prior to feeding (Time 0), after the 2nd set of feeding and at the conclusion of the experiment (End) for determination of lipid profile, lipid fractionation and plasma collection. Atherosclerosis was assessed as described above in the aorta sinus and aorta. […] Weight was recorded every 2 weeks throughout the experiment. […]

[6] = FPLC analysis of triglyceride and cholesterol content of VLDL; assay type: in vivo; settings: oral 1 mg/mouse, 3 sets over 12 weeks; measured 9 weeks from t=0; FPLC of pooled blood
Description: (§3) 24.5 weeks old Apo-E KO mice were fed 1 mg/mouse L-ALLE (triangle) (n=11), D-ALLE (inverted triangle) (n=9) or POVPC (square) (n=10) every other day for 5 days, at 4 weeks intervals over a 12 weeks period. Control mice were fed an identical volume (0.2 ml) and regimen of PBS (circle) (n=10). Triglyceride content (Tg, mg/ml) was measured 9 weeks from t=0, by enzymatic colorimetric method in the VLDL fractions following separation of pooled blood samples on FPLC, as described in the materials and methods section that follows.
as §3, with “Cholesterol” for “Triglyceride”, “(Cholesterol,” for “(Tg,”
FPLC Analysis: Fast Protein Liquid Chromatography analysis of cholesterol and lipid content of lipoproteins was performed using Superose 6 HR 10/30 column (Amersham Pharmacia Biotech, Inc, Peapack, N.J.) on a FPLC system (Pharmacia LKB. FRAC-200, Pharmacia, Peapack, N.J.). A minimum sample volume of 300 μl (blood pooled from 3 mice was diluted 1:2 and filtered before loading) was required in the sampling vial for the automatic sampler to completely fill the 200 μl sample loop. Fractions 10-40 were collected, each fraction contained 0.5 ml. A 250 μl sample from each fraction was mixed with freshly prepared cholesterol reagent or triglyceride reagent respectively, incubated for 5 minutes at 37° C. and assayed spectrophotometrically at 500 nm.
Their effect on the triglyceride and cholesterol fractions of VLDL was also monitored by FPLC. […] male, 24.5 week old Apo-E KO mice were divided into 5 groups. In group A (n=11) mice were fed with 1 mg/mouse L-ALLE suspended in 0.2 ml PBS, administered by gavage, as described above, every other day for 5 days. In group B (n=9) mice were fed with 1 mg/mouse D-ALLE suspended in 0.2 ml PBS, administered per os, as described above, every other day for 5 days. In group C (n=10) mice were fed with 1 mg/mouse POVPC suspended in 0.2 ml PBS, administered by gavage, as described above, every other day for 5 days. […]
as §2

[7] = tested on: IL12p40; test: p40 production by activated BMDC's (ELISA); assay type: cell-based, mouse; settings: BMDC's, 1 h pre-incubation, PGN 10 μg/ml, 24 hours; preliminary results

## 2,5′-Aldehyde Lecithin Ether [ALLE]
[1]
  IL-10 expression in the aorta versus PBS: elevated levels
[2]
  IL-12 expression in the aorta versus PBS: reduced levels
[3]; ALLE by both oral (1 mg/mouse) and nasal (10 μg/mouse) administrations
  protection from atherogenesis: approximately 50%
[3]; i.p. immunization with ALLE (mixture of D- and L-)
  protection from atherosclerotic lesion formation: > 50%
[3]; i.p. immunization x4 every 2 weeks (ALLE 150 μg/mouse coupled to PPD; PPD alone), 4.5 weeks post 4th immunization
  Lesion size: 101000 ± 8276 μm^2
[3]; nasal 10 μg/mouse L-ALLE every other day for 3 days, 8 weeks after last exposure
  Lesion size: 82708 ± 10986 μm^2
[3]; oral 10 μg/mouse L-ALLE+D-ALLE every other day for 5 days, 8 weeks after last feeding
  Lesion size: 103889 ± 14320 μm^2
[3]; oral 1 mg/mouse L-ALLE every other day for 5 days, 8 weeks after last feeding
  Lesion size: 76944 ± 17072 μm^2
[3]; oral 1 mg/mouse L-ALLE+D-ALLE every other day for 5 days, 8 weeks after last feeding
  Lesion size: 85278 ± 11633 μm^2
[3]; oral administration
  atherogenesis in Apo-E KO mice, oral administration (summary of earlier examples): substantially inhibited atherogenesis
[3]; oral administration of ALLE, 10 μg-1 mg/mouse
  protection from atherosclerosis: > 50%
[4]
  IFN-γ expression in the aorta versus PBS: Reduced expression levels

## C=CCCCCO[C@H](COCCCCCCCCCCCCCCCC)COP(=O)([O-])OCC[N+](C)(C)C [Compound V, 1-Hexadecyl-2-(5′-hexenyl)-sn-glycero-3-phosphocholine]
[3]; oral 0.1 μg/dose, 3 monthly sets of 5 administrations
  atherogenesis progression: did not effect atherogenesis progression
[3]; oral 0.1 μg/dose, 3 monthly sets of 5 administrations, 12 weeks, 23-26 weeks old mice, no statistical difference to PBS
  Sinus Lesion: 238000 ± 32200 µm²
[3]; oral 0.2 mg/mouse every other day for 5 days, 8 weeks after last administration
  Sinus Lesion: 334622 ± 26100 μm^2
[3]; oral 1 mg/mouse every other day for 5 days, 8 weeks after last administration
  Sinus Lesion: 361166 ± 24068 μm^2
[3]; oral 5 mg/mouse every other day for 5 days, 8 weeks after last administration
  Sinus Lesion: 307291 ± 22689 μm^2
[3]; oral 0.2-5 mg/mouse every other day for 5 days
  effect on atherogenesis: no effect

## CCCCCCCCCCCCCCCCOC[C@H](COP(=O)([O-])OCC[N+](C)(C)C)OCCCCC=O [D-ALLE, 1-hexadecyl-2-(5′-oxo-pentanyl)-sn-glycero-3-phosphocholine]
[5]
  Aorta lesion (% from total area): 4.5 % from total area
[6]
  cholesterol content of VLDL: reduction
  triglyceride content of VLDL: reduction
[3]; oral 1 mg/mouse, 5 feedings every other day every 4 weeks over 12 weeks, 24.5 week old mice, End (12 weeks after first feeding)
  Sinus Lesion: 245938 ± 20474 μm^2
[3]; oral 1 mg/mouse, late stage, compared with lesion scores at 24.5 weeks
  protection from atheromatous progression: nearly complete protection

## CCCCCCCCCCCCCCCCOC[C@H](COP(=O)([O-])OCC[N+](C)(C)C)OC(=O)CCC [PAF2C, 1-O-Hexadecyl-2-O-Butyroyl-sn-Glycero-3-Phosphocholine, reference compound]
[7]
  p40 production / p40 inhibition, structure-function analysis: efficient in p40 inhibition

## CCCCCCCCCCCCCCCCOC[C@H](COP(=O)([O-])OCC[N+](C)(C)C)OC(C)=O [PAF, 1-O-Hexadecyl-2-Acetoyl-sn-Glycero-3-Phosphocholine, reference compound]
[7]
  p40 production / p40 inhibition, structure-function analysis: efficient in p40 inhibition

## CCCCCCCCCCCCCCCCOCC(COP(=O)([O-])OCC[N+](C)(C)C)OCCCCC(=O)OC (stereo not shown) [methyl ester of CI-201]
[7]
  p40 production / p40 inhibition, structure-function analysis: restored p40 production

## CCCCCCCCCCCCCCCCOCC(CO)OCCCCC(=O)O (stereo not shown) [non phosphorylated metabolite of CI-201]
[7]
  p40 production / p40 inhibition, structure-function analysis: restored p40 production

## CCCCCCCCCCCCCCCCOC[C@H](COP(=O)(O)OCCN)OCCCCC(=O)O [phosphoethanol amine, 1-O-Hexadecyl-2-(4′-carboxybutyl)-sn-Glycero-3-Phosphoethanolamine]
[7]
  p40 production / p40 inhibition, structure-function analysis: did not alter the molecule's p40 inhibitory effect
